Data reported in patent US20260263401A1, “Topical composition and uses thereof” (UNIVERSIDADE DE COIMBRA, priority 2022, published 2026).

How the values were obtained:
[1] = system: keratinocyte cell line (HaCat); assay: Metabolic activity of human keratinocytes (Resazurin Assay); type: cell-based
[2] = Cysteine depletion protocol (glutathione in solution depletion); conditions: FIG. 1A
Protocol: In an embodiment, Cysteine depletion Protocol-Glutathione in solution depletion protocol—“in house development protocol” was applied: • In a test tube, mix 10 μL of the 100 mM test chemical solution with 190 μL of GSH solution (20 μL of GSH 2 mM and 170 μL of PB) and Incubated at RT, protected from light, for 1 h in a tube roller (40 rpm) • […]; [test chemical]f=5 mM; [GSH]f=0.2 mM; • 20 μL of Ellman's reagent 10 mM, a thiol sensitive colorimetric reagent was added. Mix gently by tapping manually in the test tube and incubate for 10 min at RT, in a test tube rotator protected from light; • The absorbance was read in a microplate reader at 405 nm. • Note: For each assay, a fresh Glutathione stock of 50 mM (0.00768 g in 500 μL of PBS) and the second stock of 2 mM in PBS (2 μL of the […] solution+48 μl of PBS) were freshly prepared.
In an embodiment, Control and Test Chemical Preparation was applied: • DNFB is used as the positive control for the assay in every assay run. For the negative control LA is used and for the reference control three types of reference controls are included in each study: • Reference control A is made with the solvent DMSO, with incubation with Ellman's reagent and is used to calculate the maximum fluorescence or absorbance in the presence of CYS containing peptides. […]
Test Chemicals: In an embodiment, test chemicals were pre-weighted into 1.5 mL test tubes and dissolved in 1 mL of DMSO to prepare a 100 mM solution immediately before use. The weight of the test chemical to be added to the vial is determined based on the molecular weight and purity. […]
In an embodiment, for the data analysis, the percent depletion of peptide is determined by using the following formula: […]

THP-1 cells = assay: Maturation of THP-1 cells assessed by up-regulation of co-stimulatory molecules CD86 and CD54
Protocol: In an embodiment, the THP-1 cell line has been used as a dendritic cell (DC) surrogate for skin sensitizers hazard, following the OECD guidelines. […] The THP-1 cells are stabilized overnight at a density of 5×10^5 cells/mL. On the day after, cells are seeded in 12-well plates at a density of 8×10^5 cells/well and incubated for 24 h with medium (control), Dimethyl sulfoxide (DMSO) (allergens solvent) or with 20 mM of each inhibitor of ACD (NAC), (LYS) or mixture (NAC+LYS). In addition, sensitization is induced with the strong skin allergen 1-fluoro-2,4-dinitrobenzene (DNFB) (8 μM) or Methylisothiazolinone (MI) (100 μM) for 24 h. At the end of the incubation period, cells are washed with ice-cold PBS supplemented with 1% (v/v) inactivated FBS, centrifuged at 300×g for 5 min at 4° C. and pellets are dissolved in ice-cold PBS supplemented with 1% (v/v) inactivated FBS. Then, 100 µL of the cell suspension are incubated with, or without, 3 μL of anti-human CD54 antibody (#353111, Biolegend, San Diego, CA, USA) or anti-human CD86 (#305414, Biolegend, San Diego, CA, USA) antibody for 30 min at 4° C. […] A total of 1×10^4 living cells are considered for analysis. The CD86 and CD54 levels are analyzed by flow cytometry with the acquisition channels FL1 and FL4. Based on the geometric mean fluorescence intensity (MFI), the relative fluorescence intensity (RFI) of CD86 and CD54 for positive control cells and chemical-treated cells is calculated according to the following equation: […]

[3] = system: Poly-L-Lysine Hydrobromide (PLL); assay: Lysine depletion protocol (in chemico reactivity towards lysine); conditions: 20 mM molecule incubated 1 h with DNFB 5 mM; FIG. 1B
Protocol: In an embodiment, a Lysine depletion Protocol—“in house development protocol” was applied, comprising: Dissolve 0.01 g of Poly-L-Lysine Hydrobromide (PLL) (Sigma, P1399) in 100 mL of purified water (use within 2 months). Filter the solution with a syringe filter to remove aggregates and store ate 4° C. for further use. For plate coating add 50 μL of PLL to each well of the 96 black bottom glass microplate (Corning ref 45806) and incubate for 2 hours at 37° C. or 24 h at room temperature.
In an embodiment, after the coating procedure, the contents of the plate were discarded into a sink and the plate is washed 3 times with 200 μL of PBS per well. Blot any residual PBS by firmly tapping the plate upside-down on absorbent paper. 20 mM of each potential ACD inhibitory molecule/mixture is added and incubated with 70 μl of the strong skin sensitizer 1-fluoro-2,4-dinitrobenzene (DNFB) (5 mM in DMSO) for 1h; the mixture was transferred to the plate and incubated for 24 h at 37° C. The contents of the plate were discarded and the wells were washed 3 times with PBS as previously reported. 70 μL of 10 μM Fluorescein-5-Ex-Succinimidyl Ester (FSE) were added and incubated for 1 h in the dark at 37° C. The contents of the plate were discarded; the wells were washed 3 times with PBS as previously stated. The fluorescence was read in a microplate reader (Exc 485±20 nm and Em 530±30 nm). Synergy™ HT plate reader (BioTek Instruments, Inc., Winooski, VT, USA): Bottom read with a sensibility of 50. […]
In an embodiment, Reference control A is made with the solvent DMSO, with incubation with FSE and is used to calculate the maximum fluorescence or absorbance in the presence of LYS. […]
In an embodiment, Test chemicals were pre-weighted into 1.5 mL test tubes and dissolved in 1 mL of DMSO to prepare a 100 mM solution immediately before use. The weight of the test chemical to be added to the vial was determined based on the molecular weight and purity. […]
In an embodiment, for the data Analysis the percentage of peptide depletion is determined by using the following formula: […]

Row | Structure (SMILES) | cytotoxicity (metabolic activity) [1] | reactivity of the strong allergen DNFB towards cysteine (Glutathione depletion) [2] | levels of the co-stimulatory molecules CD54 and CD86 (RFI), incubated alone (THP-1 cells; THP-1, 24 h, 20 mM, no allergen) | reactivity of the strong allergen DNFB towards lysine (Lysine depletion) [3] | CD54 and CD86 maturation levels, pre-incubation before allergen (THP-1 cells; pre-incubation (20 mM) before 24 h DNFB (8 μM) and MI (100 μM))
1 | NCCCC[C@H](N)C(=O)O [LYS, lysine] | do not display cytotoxicity | significantly inhibit | do not significantly modify | significantly inhibit | 
2 | CC(=O)N[C@@H](CS)C(=O)O [NAC, n-acetyl cysteine] | do not display cytotoxicity | significantly inhibit |  | significantly inhibit | significantly decrease
